Counter-ions that a name gives are not always drawn.
Legend:
Assay in all cases: IC50 (viability, PrestoBlue) (log10 nM)
Conditions in all cases: exposure time: 72 h
[1] = system: murine gastric organoid diffuse (Cdh1 fl/fl; Apc fl/fl)
Method in brief: (§1)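 Compounds diluted in DMSO were pre-spotted into 384-well plates at nine final concentrations (6.7–25,004 nM), and mechanically dissociated murine gastric corpus organoids, uninduced or Cre-induced (RAS-activated, WNT-activated, diffuse), were seeded in 15 μl Matrigel with 45 μl medium on top for 72 h. Viability was then read as fluorescence at 560/590 nm after 3 h at 37°C with 1× final PrestoBlue. IC50 values were derived by non-linear regression in Prism and are given in log10 nM, averaged over three passages with two wells each.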

[2] = system: murine gastric organoid WNT-activated (Apc fl/fl; Tp53 R172H)
Method in brief: as §1

[3] = system: murine normal gastric organoid
Method in brief: as §1

[4] = system: murine gastric organoid RAS-activated (Kras G12D; Tp53 R172H)
Method in brief: as §1

Row | Compound | IC50 (log10 nM) [1] | IC50 (log10 nM) [2] | IC50 (log10 nM) [3] | IC50 (log10 nM) [4]
1 | CO[C@H]1C[C@@H]2CC[C@@H](C)[C@@](O)(O2)C(=O)C(=O)N2CCCC[C@H]2C(=O)O[C@H]([C@H](C)C[C@@H]2CC[C@@H](OCCO)[C@H](OC)C2)CC(=O)[C@H](C)/C=C(\C)[C@@H](O)[C@@H](OC)C(=O)[C@H](C)C[C@H](C)/C=C/C=C/C=C/1C [Everolimus] | 3.31 | 3.26 | 3.4 | 3.26
2 | N.N.[Cl][Pt][Cl] [Cisplatin] | 3.13 | 3.59 | 3 | 3.54
3 | CN1CCN(c2ccc3nc(-c4c(N)c5c(F)cccc5[nH]c4=O)[nH]c3c2)CC1 [Dovitinib] | 3.4 | 3.41 | 3.21 | 3.46
4 | Cc1cc(Nc2ncc(Cl)c(Nc3ccccc3S(=O)(=O)C(C)C)n2)c(OC(C)C)cc1C1CCNCC1 [LDK378] | 2.8 | 2.55 | 2.84 | 3.08
5 | CS(=O)(=O)CCNCc1ccc(-c2ccc3ncnc(Nc4ccc(OCc5cccc(F)c5)c(Cl)c4)c3c2)o1 [Lapatinib] | 2.84 | 2.43 | 2.54 | 3.12
6 | COC(=O)N[C@@H](C)CNc1nccc(-c2cn(C(C)C)nc2-c2cc(Cl)cc(NS(C)(=O)=O)c2F)n1 [LGX818] | < 0.826 | 2.62 | 3.91 | < 0.826
7 | COc1cc2ncnc(Nc3ccc(F)c(Cl)c3)c2cc1OCCCN1CCOCC1 [Gefitinib] | 2.65 | 2.38 | 1.98 | 4.06
8 | CNC(=O)[C@@H](NC(=O)[C@H](CC(C)C)[C@H](O)C(=O)NO)C(C)(C)C [Marimastat] | > 4.4 | 4.02 | 4.37 | < 0.826
9 | Nc1ccccc1NC(=O)c1ccc(CNC(=O)OCc2cccnc2)cc1 [Entinostat] | 3.39 | 3.99 | 4.22 | 3.36
10 | COC(=O)C[C@](O)(CCCC(C)(C)O)C(=O)O[C@@H]1C(OC)=C[C@]23CCCN2CCc2cc4c(cc2[C@H]13)OCO4 [Homoharringtonine] | 1.82 | 0.956 | 1.91 | 1.56
11 | CC(C)C[C@H](NC(=O)[C@H](CCc1ccccc1)NC(=O)CN1CCOCC1)C(=O)N[C@@H](Cc1ccccc1)C(=O)N[C@@H](CC(C)C)C(=O)[C@@]1(C)CO1 [Carfilzomib] | 1.04 | 1.32 | 1.16 | 1.16
12 | CC[C@@]1(O)C(=O)OCc2c1cc1n(c2=O)Cc2cc3c(CN(C)C)c(O)ccc3nc2-1 [Topotecan hydrochloride] | 2.4 | 2.36 | 1.48 | 1.68
13 | Cn1nccc1Nc1nccc(-c2ccn([C@H](CO)c3ccc(Cl)c(F)c3)c(=O)c2)n1 [Ravoxertinib] | > 4.4 | 3.44 | 3.18 | 3.74
14 | C=CCc1ccc(O)c(-c2ccc(O)c(CC=C)c2)c1 [Honokiol] | 4.28 | 3.87 | 3.97 | 4.12
15 | C=CC(=O)N1CCC[C@@H](n2nc(-c3ccc(Oc4ccccc4)cc3)c3c(N)ncnc32)C1 [Ibrutinib] | 2.53 | 2.48 | 2.2 | 4.23
16 | CN(C)CCN1C(=O)c2cccc3cc(N)cc(c23)C1=O [Amonafide] | 3.23 | 2.39 | 3.1 | 3.03
17 | Cc1nc(Nc2ncc(C(=O)Nc3c(C)cccc3Cl)s2)cc(N2CCN(CCO)CC2)n1 [Dasatinib hydrochloride] | 2.3 | 1.29 | 2.05 | 1.86
